The values that follow come from patent publication US12310975B2, “Modulators of BCL6 proteolysis and associated methods of use” (Arvinas Operations, Inc., priority 2019, dated 2025).

Where only a bound is given, the exact number is not on record here.

The first experiment has as its target BCL6 (Homo sapiens (Human), UniProt P41182). As to the kind of experiment: Immunofluorescence high content imaging of BCL6 degradation in T47D cells. It is filed as cell-based.
Conditions: not given
A digest of the protocol:
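Read-out is BCL6 immunofluorescence quantified by high-content imaging (10×, 4 fields per well) of T47D breast cancer cells. Cells were exposed for 3 days to degrader in an 11-point, 3-fold serial dilution reaching a final top concentration of 0.1 or 1 μM.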
Take `CNC(=O)COc1cc2cc(Nc3nc(N4CCC(CN5CCN(c6cccc7c6C(=O)N(C6CCC(=O)NC6=O)C7=O)CC5)CC4)ncc3Cl)ccc2n(C)c1=O` (stereo not drawn) [compound 260, 2-((6-((5-chloro-2-(4-((4-(2-(2,6-dioxopiperidin-3-yl)-1,3-dioxoisoindolin-4-yl)piperazin-1-yl)methyl)piperidin-1-yl)pyrimidin-4-yl)amino)-1-methyl-2-oxo-1,2-dihydroquinolin-3-yl)oxy)-N-methylacetamide]: the IC50 (in general, the concentration at which inhibition is half-maximal) is 10 to 50 nM. As for `CC(=O)COc1cc2cc(Nc3nc(N4CCC(N5CCCC5COc5ccc6c(c5)C(=O)N(C5CCC(=O)NC5=O)C6=O)CC4)ncc3Cl)ccc2n(C)c1=O` (stereo not drawn) [compound 182, 5-((1-(1-(5-chloro-4-((1-methyl-2-oxo-3-(2-oxopropoxy)-1,2-dihydroquinolin-6-yl)amino)pyrimidin-2-yl)piperidin-4-yl)pyrrolidin-2-yl)methoxy)-2-(2,6-dioxopiperidin-3-yl)isoindoline-1,3-dione], the IC50 was not below 100 nM. For `CNC(=O)COc1cc2cc(Nc3nc(N4CCN(C)CC4)ncc3Cl)ccc2n(CCCOc2ccc3c(c2)C(=O)N(C2CCC(=O)NC2=O)C3=O)c1=O` (stereo not drawn) [compound 244, 2-((6-((5-chloro-2-(4-methylpiperazin-1-yl)pyrimidin-4-yl)amino)-1-(3-((2-(2,6-dioxopiperidin-3-yl)-1,3-dioxoisoindolin-5-yl)oxy)propyl)-2-oxo-1,2-dihydroquinolin-3-yl)oxy)-N-methylacetamide], the IC50 was not below 100 nM.

Still in this experiment, the particulars now being: T47D.
Take `CNC(=O)COc1cc2cc(Nc3nc(N4CCC(CN5CCN(c6cccc7c6C(=O)N(C6CCC(=O)NC6=O)C7=O)CC5)CC4)ncc3Cl)ccc2n(C)c1=O` (stereo not drawn) [compound 260, 2-((6-((5-chloro-2-(4-((4-(2-(2,6-dioxopiperidin-3-yl)-1,3-dioxoisoindolin-4-yl)piperazin-1-yl)methyl)piperidin-1-yl)pyrimidin-4-yl)amino)-1-methyl-2-oxo-1,2-dihydroquinolin-3-yl)oxy)-N-methylacetamide]: the greatest degradation seen (Dmax) – broadly, the largest share of the target that was removed – was not below 70%.

In the case of `CC(=O)COc1cc2cc(Nc3nc(N4CCC(N5CCCC5COc5ccc6c(c5)C(=O)N(C5CCC(=O)NC5=O)C6=O)CC4)ncc3Cl)ccc2n(C)c1=O` (stereo not drawn) [compound 182, 5-((1-(1-(5-chloro-4-((1-methyl-2-oxo-3-(2-oxopropoxy)-1,2-dihydroquinolin-6-yl)amino)pyrimidin-2-yl)piperidin-4-yl)pyrrolidin-2-yl)methoxy)-2-(2,6-dioxopiperidin-3-yl)isoindoline-1,3-dione], the maximal degradation (Dmax) was less than 50%. Compound `CNC(=O)COc1cc2cc(Nc3nc(N4CCC(OC5CC6(CCN(c7cccc(C(=O)NC8CCC(=O)NC8=O)c7OC)CC6)C5)CC4)ncc3Cl)ccc2n(C(C)C)c1=O` (stereo not drawn) [compound 449, 3-[2-({1-[5-chloro-4-({3-[(methylcarbamoyl)methoxy]-2-oxo-1-(propan-2-yl)-1,2-dihydroquinolin-6-yl}amino)pyrimidin-2-yl]piperidin-4-yl}oxy)-7-azaspiro[3.5]nonan-7-yl]-N-(2,6-dioxopiperidin-3-yl)-2-methoxybenzamide] had a Dmax of 50 to 70%. For the compound `CNC(=O)COc1cc2cc(Nc3nc(N4CCN(C)CC4)ncc3Cl)ccc2n(CCCOc2ccc3c(c2)C(=O)N(C2CCC(=O)NC2=O)C3=O)c1=O` (stereo not drawn) [compound 244, 2-((6-((5-chloro-2-(4-methylpiperazin-1-yl)pyrimidin-4-yl)amino)-1-(3-((2-(2,6-dioxopiperidin-3-yl)-1,3-dioxoisoindolin-5-yl)oxy)propyl)-2-oxo-1,2-dihydroquinolin-3-yl)oxy)-N-methylacetamide], the Dmax was not below 70%.

The same experiment, now with this note: T47D cells.
For the compound `CNC(=O)COc1cc2cc(Nc3nc(N4CCC(CN5[C@H](C)CN(c6ccc(C(=O)NC7CCC(=O)NC7=O)c(OC)c6)C[C@@H]5C)CC4)ncc3Cl)ccc2n(C)c1=O` (stereo partly drawn) [compound 347, 4-[(3R,5S)-4-({1-[5-chloro-4-({1-methyl-3-[(methylcarbamoyl)methoxy]-2-oxo-1,2-dihydroquinolin-6-yl}amino)pyrimidin-2-yl]piperidin-4-yl}methyl)-3,5-dimethylpiperazin-1-yl]-N-(2,6-dioxopiperidin-3-yl)-2-methoxybenzamide], the Dmax was in the range of 50 to 70% and the IC50 is less than 10 nM.

On to `CNC(=O)COc1cc2cc(Nc3nc(N4CCC(OC5CC6(C5)CN(c5ccc7c(c5)C(=O)N(C5CCC(=O)NC5=O)C7=O)C6)CC4)ncc3Cl)ccc2n(C(C)C)c1=O` (stereo not drawn) [compound 362, 2-{[6-({5-chloro-2-[4-({2-[2-(2,6-dioxopiperidin-3-yl)-1,3-dioxo-2,3-dihydro-1H-isoindol-5-yl]-2-azaspiro[3.3]heptan-6-yl}oxy)piperidin-1-yl]pyrimidin-4-yl}amino)-2-oxo-1-(propan-2-yl)-1,2-dihydroquinolin-3-yl]oxy}-N-methylacetamide], for which the Dmax is 50 to 70% and the IC50 is less than 10 nM. The like results for `CNC(=O)COc1cc2cc(Nc3nc(N4CCO[C@H](COc5ccc(C(=O)NC6CCC(=O)NC6=O)c(F)c5)C4)ncc3Cl)ccc2n(C(C)C)c1=O` (stereo partly drawn) [compound 350, 4-{[(2S)-4-[5-chloro-4-({3-[(methylcarbamoyl)methoxy]-2-oxo-1-(propan-2-yl)-1,2-dihydroquinolin-6-yl}amino)pyrimidin-2-yl]morpholin-2-yl]methoxy}-N-(2,6-dioxopiperidin-3-yl)-2-fluorobenzamide] were, in that order, less than 50% and less than 10 nM. Turning to `CNC(=O)COc1cc2cc(Nc3nc(N4CCC(CN5CC6(CCN(c7ccc8c(c7)C(=O)N(C7CCC(=O)NC7=O)C8=O)CC6)C5)CC4)ncc3Cl)ccc2n(C(C)C)c1=O` (stereo not drawn) [compound 374, 2-{[6-({5-chloro-2-[4-({7-[2-(2,6-dioxopiperidin-3-yl)-1,3-dioxo-2,3-dihydro-1H-isoindol-5-yl]-2,7-diazaspiro[3.5]nonan-2-yl}methyl)piperidin-1-yl]pyrimidin-4-yl}amino)-2-oxo-1-(propan-2-yl)-1,2-dihydroquinolin-3-yl]oxy}-N-methylacetamide], the Dmax is not below 70% and the IC50 is less than 10 nM. `CNC(=O)COc1cc2cc(Nc3nc(N4CCN(CC5CCN(c6ccc7c(c6)C(=O)N(C6CCC(=O)NC6=O)C7=O)CC5)CC4)ncc3Cl)ccc2n(C2CC2)c1=O` (stereo not drawn) [compound 323, 2-{[6-({5-chloro-2-[4-({1-[2-(2,6-dioxopiperidin-3-yl)-1,3-dioxo-2,3-dihydro-1H-isoindol-5-yl]piperidin-4-yl}methyl)piperazin-1-yl]pyrimidin-4-yl}amino)-1-cyclopropyl-2-oxo-1,2-dihydroquinolin-3-yl]oxy}-N-methylacetamide] returned a Dmax not below 70% and an IC50 of less than 10 nM. Compound `CNC(=O)COc1cc2cc(Nc3nc(N4CCC(CN5[C@H](C)CN(c6cccc7c6C(=O)N(C6CCC(=O)NC6=O)C7=O)C[C@@H]5C)CC4)ncc3Cl)ccc2n(C(C)C)c1=O` (mixture of isomers) [compound 381, rac-2-[(6-{[5-chloro-2-(4-{[(2R,6S)-4-[2-(2,6-dioxopiperidin-3-yl)-1,3-dioxo-2,3-dihydro-1H-isoindol-4-yl]-2,6-dimethylpiperazin-1-yl]methyl}piperidin-1-yl)pyrimidin-4-yl]amino}-2-oxo-1-(propan-2-yl)-1,2-dihydroquinolin-3-yl)oxy]-N-methylacetamide] showed a Dmax of 50 to 70% and an IC50 of less than 10 nM. In the case of `CC[C@H]1CN(c2ncc(Cl)c(Nc3ccc4c(c3)cc(OCC(=O)NC)c(=O)n4C(C)C)n2)C[C@@H](COc2ccc3c(c2)C(=O)N(C2CCC(=O)NC2=O)C3=O)O1` (stereo partly drawn) [compound 394, 2-{[6-({5-chloro-2-[(2S,6S)-2-({[2-(2,6-dioxopiperidin-3-yl)-1,3-dioxo-2,3-dihydro-1H-isoindol-5-yl]oxy}methyl)-6-ethylmorpholin-4-yl]pyrimidin-4-yl}amino)-2-oxo-1-(propan-2-yl)-1,2-dihydroquinolin-3-yl]oxy}-N-methylacetamide], the greatest degradation seen (Dmax) lay within 50 to 70% and the IC50 was less than 10 nM. `CCCn1c(=O)c(OCC(=O)NC)cc2cc(Nc3nc(N4CCC[C@H](COc5cccc6c5C(=O)N(C5CCC(=O)NC5=O)C6=O)C4)ncc3Cl)ccc21` (stereo partly drawn) [compound 318, 2-{[6-({5-chloro-2-[(3S)-3-({[2-(2,6-dioxopiperidin-3-yl)-1,3-dioxo-2,3-dihydro-1H-isoindol-4-yl]oxy}methyl)piperidin-1-yl]pyrimidin-4-yl}amino)-2-oxo-1-propyl-1,2-dihydroquinolin-3-yl]oxy}-N-methylacetamide] gave a Dmax of 50 to 70% and a half-maximal inhibitory concentration (IC50) of 50 to 100 nM.

In the case of `CNC(=O)COc1cc2cc(Nc3nc(N4C[C@@H](COc5ccc6c(c5)C(=O)N(C5CCC(=O)NC5=O)C6=O)O[C@H](C)C4)ncc3Cl)ccc2n(C(C)C)c1=O` (stereo partly drawn) [compound 382, 2-{[6-({5-chloro-2-[(2S,6R)-2-({[2-(2,6-dioxopiperidin-3-yl)-1,3-dioxo-2,3-dihydro-1H-isoindol-5-yl]oxy}methyl)-6-methylmorpholin-4-yl]pyrimidin-4-yl}amino)-2-oxo-1-(propan-2-yl)-1,2-dihydroquinolin-3-yl]oxy}-N-methylacetamide], the Dmax was in the range of 50 to 70% and the IC50 fell in the range of 50 to 100 nM.

Compound `CCCN(C1CCN(c2ccc3c(c2)C(=O)N(C2CCC(=O)NC2=O)C3=O)CC1)C1CCN(c2ncc(Cl)c(Nc3ccc4c(c3)cc(OCC(=O)NC)c(=O)n4C)n2)CC1` (stereo not drawn) [compound 327, 2-{[6-({5-chloro-2-[4-({1-[2-(2,6-dioxopiperidin-3-yl)-1,3-dioxo-2,3-dihydro-1H-isoindol-5-yl]piperidin-4-yl}(propyl)amino)piperidin-1-yl]pyrimidin-4-yl}amino)-1-methyl-2-oxo-1,2-dihydroquinolin-3-yl]oxy}-N-methylacetamide] yielded a Dmax of 50 to 70% and an IC50 of 10 to 50 nM.

The experiment is the same for the next values; noted with them: class symbols A-D, read-out: EC50 (nM)*.
As for `CNC(=O)COc1cc2cc(Nc3nc(N4CCC(OCCOc5cc(-c6scnc6C)ccc5CNC(=O)[C@@H]5C[C@@H](O)CN5C(=O)C(c5cc(C)no5)C(C)C)CC4)ncc3Cl)ccc2n(C)c1=O` (stereo partly drawn) [compound 56, (2S,4R)—N-(2-(2-((1-(5-chloro-4-((1-methyl-3-(2-(methylamino)-2-oxoethoxy)-2-oxo-1,2-dihydroquinolin-6-yl)amino)pyrimidin-2-yl)piperidin-4-yl)oxy)ethoxy)-4-(4-methylthiazol-5-yl)benzyl)-4-hydroxy-1-(3-methyl-2-(3-methylisoxazol-5-yl)butanoyl)pyrrolidine-2-carboxamide], the DC50 was more than 100 nM. Turning to `CNC(=O)COc1cc2cc(Nc3nc(N4CCC(c5cn(CCOc6ccc7c(c6)C(=O)N(C6CCC(=O)NC6=O)C7=O)nn5)CC4)ncc3Cl)ccc2n(C)c1=O` (stereo not drawn) [compound 106, 2-((6-((5-chloro-2-(4-(1-(2-((2-(2,6-dioxopiperidin-3-yl)-1,3-dioxoisoindolin-5-yl)oxy)ethyl)-1H-1,2,3-triazol-4-yl)piperidin-1-yl)pyrimidin-4-yl)amino)-1-methyl-2-oxo-1,2-dihydroquinolin-3-yl)oxy)-N-methylacetamide], the DC50 was 10 to 50 nM. The same measure, in the same setting: in the case of `CN1C(=O)CCc2cc(Nc3cc(N4CCC(CN(C)[C@H]5C[C@H](Oc6ccc7c(c6)C(=O)N(C6CCC(=O)NC6=O)C7=O)C5)CC4)c([N+](=O)[O-])cc3Cl)ccc21` (stereo partly drawn) [compound 85, 5-((1r,3r)-3-(((1-(4-chloro-5-((1-methyl-2-oxo-1,2,3,4-tetrahydroquinolin-6-yl)amino)-2-nitrophenyl)piperidin-4-yl)methyl)(methyl)amino)cyclobutoxy)-2-(2,6-dioxopiperidin-3-yl)isoindoline-1,3-dione] it was more than 100 nM.
